Earlier results on one molecule are cited in patent publication US20220289809A1, “USE OF RELAXIN TO TREAT ATRIAL FIBRILLATION” (University of Pittsburgh - Of the Commonwealth System of …, priority 2012, published 2022).

In this data set the test system is CHF canine model.

In the case of `Cc1ccc(=O)n(-c2ccccc2)c1` [Pirfenidone], the “atrial CV” value is “did not generate a significantly greater increase in atrial CV”; the “fibrosis and AF” value is “reverse fibrosis and attenuate AF”.
